Experimental data taken from patent US9718790B2, “Triazine derivative and pharmaceutical composition having an analgesic activity comprising the same” (SHIONOGI & CO., LTD., priority 2010, dated 2017).
pIC50: −log10 of the molar value. Where “and” joins values, the source holds several entries; their conditions need not be identical. Identical values can stand only once.

What follows are molecules tested against human P2X3 receptor (Homo sapiens (Human), UniProt P56373) (assay: Evaluation of human P2X3 receptor inhibitory activity (Fluo-3 calcium fluorescence, FDSS 3000, ATP stimulation)). Settings: C6BU-1 cells stably expressing human P2X3 receptor.
Sequence of human P2X3 receptor (P56373 whole entry): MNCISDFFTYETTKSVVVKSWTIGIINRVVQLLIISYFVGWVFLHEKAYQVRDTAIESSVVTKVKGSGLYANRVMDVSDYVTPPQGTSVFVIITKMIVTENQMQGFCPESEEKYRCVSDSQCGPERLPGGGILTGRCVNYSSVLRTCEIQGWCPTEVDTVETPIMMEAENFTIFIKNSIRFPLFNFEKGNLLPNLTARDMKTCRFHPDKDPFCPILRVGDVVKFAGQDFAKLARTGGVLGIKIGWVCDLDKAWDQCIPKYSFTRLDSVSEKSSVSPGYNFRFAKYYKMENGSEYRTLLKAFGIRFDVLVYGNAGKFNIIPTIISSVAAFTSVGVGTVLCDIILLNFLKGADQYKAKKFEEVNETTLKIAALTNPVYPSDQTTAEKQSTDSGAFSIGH
Type: cell-based
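Also: stimulus was 50 nM ATP with fluorescence followed for 3 min, and the response per well was peak post-ATP fluorescence divided by the reading at measurement start.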

First: O=c1[nH]/c(=N\c2ccc(Oc3cc(CO)on3)cc2)n(Cc2ccc(Cl)cc2)c(=O)n1CCO [Compound I-2118]
Second: CCCn1c(=O)[nH]/c(=N\c2ccc(Oc3ccnc(C(=O)O)c3)cc2)n(Cc2ccc(Cl)cc2)c1=O [Compound I-2162]
The pIC50 of the first is 0.76 log units lower: 7.46 for the first, 8.22 for the second. The second is the more potent here.

First: CCn1c(=O)[nH]/c(=N\c2ccc(Oc3ccc(C(N)=O)nc3)cc2)n(Cc2ccc(Cl)cc2)c1=O [Compound I-2119]
Second: CCCn1c(=O)[nH]/c(=N\c2ccc(Oc3ccc(C(=O)O)nc3)cc2)n(Cc2ccc(Cl)cc2)c1=O [Compound I-2161]
The pIC50 of the first is 1.15 log units higher: 9.00 for the first, 7.85 for the second. The first is the more potent here.

Compared with CCn1c(=O)[nH]/c(=N\c2ccc(Oc3cncc(C(N)=O)c3)cc2)n(Cc2ccc(F)cc2)c1=O [Compound I-2120], CCn1c(=O)[nH]/c(=N\c2ccc(Oc3cc(C(N)=O)ccn3)cc2)n(Cc2ccc(Cl)cc2)c1=O [Compound I-2165] is 1.47 log units lower in pIC50: 7.48 for the first, 6.01 for the second.

First: Cc1ccc(Cn2c(=O)n(C)c(=O)[nH]/c2=N\c2ccc(Oc3cncc(C(=O)O)c3)cc2)cc1 [Compound I-2121]
Second: CCn1c(=O)[nH]/c(=N\c2ccc(Oc3cncc(C(=O)O)c3)cc2)n(Cc2ccc(Cl)cn2)c1=O [Compound I-2164]
The pIC50 of the first is 0.78 log units higher: 7.68 for the first, 6.90 for the second. The first is the more potent here.

First: CC(C)Oc1ccc(/N=c2\[nH]c(=O)n(CCNCCO)c(=O)n2Cc2ccc(Cl)cc2)cc1F [Compound I-2122]
Second: Cc1nc2ccc(/N=c3\[nH]c(=O)n(CCNCCO)c(=O)n3Cc3ccc(Cl)cc3)cc2s1 [Compound I-2163]
The pIC50 of the first is 0.24 log units lower: 7.03 for the first, 7.27 for the second.

CCOC(=O)CCCn1c(=O)[nH]/c(=N\c2ccc3nc(C)sc3c2)n(Cc2ccc(C)cc2)c1=O [Compound I-2123] and COC(=O)CCCCn1c(=O)[nH]/c(=N\c2ccc3nc(C)sc3c2)n(Cc2ccc(C)cc2)c1=O [Compound I-2155] are the same in pIC50: 8.40 for the first, 8.40 for the second.

Cc1ccc(Cn2c(=O)n(CCCC(=O)O)c(=O)[nH]/c2=N\c2ccc3nc(C)sc3c2)cc1 [Compound I-2124] and Cc1ccc(Cn2c(=O)n(CCCCC(=O)O)c(=O)[nH]/c2=N\c2ccc3nc(C)sc3c2)cc1 [Compound I-2158] are within 0.2 log units of each other in pIC50: 7.57 for the first, 7.54 for the second.

CCn1c(=O)[nH]/c(=N\c2ccc(Oc3cncc(OC)n3)cc2)n(Cc2ccc(Cl)cc2)c1=O [Compound I-2125] and CCn1c(=O)[nH]/c(=N\c2ccc(Oc3nc(C(=O)O)cs3)cc2)n(Cc2ccc(Cl)cc2)c1=O [Compound I-2193] are within 0.2 log units of each other in pIC50: 8.15 for the first, 8.22 for the second.

First: Cc1ccc(Cn2c(=O)n(CCC(=O)O)c(=O)[nH]/c2=N\c2ccc3c(ccc(=O)n3C)c2)cc1 [Compound I-2128]
Second: COc1ccc2cc(/N=c3\[nH]c(=O)n(CCC(=O)O)c(=O)n3Cc3ccc(C)cc3)ccc2n1 [Compound I-2137]
The pIC50 of the first is 0.33 log units lower: 6.54 for the first, 6.87 for the second.

First: CCOc1ccc2cc(/N=c3\[nH]c(=O)n(CCC(=O)O)c(=O)n3Cc3ccc(C)cc3)ccc2c1 [Compound I-2130]
Second: Cc1ccc(Cn2c(=O)n(CCC(=O)O)c(=O)[nH]/c2=N\c2ccc3[nH]c(=O)sc3c2)cc1 [Compound I-2133]
The pIC50 of the first is 0.64 log units lower: 6.10 for the first, 6.74 for the second.

First: CCn1c(=O)[nH]/c(=N\c2ccc(OC3CNC=C(C(=O)OC)C3)cc2)n(Cc2ccc(Cl)cc2)c1=O (stereo not shown) [Compound I-2138]
Second: CCn1c(=O)[nH]/c(=N\c2ccc(Oc3ccc(C(=O)OC)o3)cc2)n(Cc2ccc(Cl)cc2)c1=O [Compound I-2150]
The pIC50 of the first is 0.59 log units lower: 6.77 for the first, 7.36 for the second.

First: CCn1c(=O)[nH]/c(=N\c2ccc(Oc3cccc(NC(C)=O)c3)cc2)n(Cc2ccc(Cl)cc2)c1=O [Compound I-2139]
Second: CCn1c(=O)[nH]/c(=N\c2ccc(Oc3ccnc(N)c3)cc2)n(Cc2ccc(Cl)cc2)c1=O [Compound I-2166]
The pIC50 of the first is 0.34 log units lower: 7.66 for the first, 8.00 for the second.

Cc1ccc(Cn2c(=O)[nH]c(=O)[nH]/c2=N\c2ccc(Oc3ccnc(C(=O)O)c3)cc2)cc1 [Compound I-2140] and O=C(O)c1cc(Oc2ccc(/N=c3\[nH]c(=O)[nH]c(=O)n3Cc3ccc(Cl)cc3)cc2F)ccn1 [Compound I-2141] are the same in pIC50: 8.15 for the first, 8.15 for the second.

Compared with COC(=O)CCCn1c(=O)[nH]/c(=N\c2ccc3nc(C)sc3c2)n(Cc2ccc(Cl)cc2)c1=O [Compound I-2142], Cc1nc2ccc(/N=c3\[nH]c(=O)n(CCCC(=O)O)c(=O)n3Cc3ccc(Cl)cc3)cc2s1 [Compound I-2143] is 0.58 log units lower in pIC50: 8.22 for the first, 7.64 for the second.

Compared with CCn1c(=O)[nH]/c(=N\c2ccc(Oc3cccc(C(N)=O)n3)cc2)n(Cc2ccc(Cl)cc2)c1=O [Compound I-2145], CCn1c(=O)[nH]/c(=N\c2ccc(Oc3cccc(C(=O)O)n3)cc2)n(Cc2ccc(C)cc2)c1=O [Compound I-2181] is 0.30 log units higher in pIC50: 8.10 for the first, 8.40 for the second.

CCOC(=O)c1sc(Oc2ccc(/N=c3\[nH]c(=O)n(CC)c(=O)n3Cc3ccc(Cl)cc3)cc2)nc1C [Compound I-2147] and CCn1c(=O)[nH]/c(=N\c2ccc(Oc3nc(C)c(C(=O)O)s3)cc2)n(Cc2ccc(Cl)cc2)c1=O [Compound I-2151] are within 0.2 log units of each other in pIC50: 7.85 for the first, 7.92 for the second.

Compared with CCOC(=O)c1cnc(Oc2ccc(/N=c3\[nH]c(=O)n(CC)c(=O)n3Cc3ccc(Cl)cc3)cc2)s1 [Compound I-2148], CCOC(=O)c1csc(Oc2ccc(/N=c3\[nH]c(=O)n(CC)c(=O)n3Cc3ccc(Cl)cc3)cc2)n1 [Compound I-2191] is 0.40 log units lower in pIC50: 8.70 for the first, 8.30 for the second. The first is the more potent here.

CCOC(=O)Cc1c(C)oc2ccc(/N=c3\[nH]c(=O)n(CC)c(=O)n3Cc3ccc(Cl)cc3)cc12 [Compound I-2149] and CCn1c(=O)[nH]/c(=N\c2ccc3oc(C)c(CC(=O)O)c3c2)n(Cc2ccc(Cl)cc2)c1=O [Compound I-2170] are within 0.2 log units of each other in pIC50: 6.10 for the first, 6.09 for the second.

CCn1c(=O)[nH]/c(=N\c2ccc(Oc3ccc(C(=O)O)o3)cc2)n(Cc2ccc(Cl)cc2)c1=O [Compound I-2152] and CCn1c(=O)[nH]/c(=N\c2ccc(Oc3nc(C(=O)O)co3)cc2)n(Cc2ccc(Cl)cc2)c1=O [Compound I-2190] are within 0.2 log units of each other in pIC50: 7.39 for the first, 7.48 for the second.

CCn1c(=O)[nH]/c(=N\c2ccc(Oc3cncc(C(=O)OC)c3)cc2)n(Cc2ccc(Cl)cn2)c1=O [Compound I-2154] and CCn1c(=O)[nH]/c(=N\c2ccc(Oc3ccnc(C(=O)OC)c3)cc2)n(Cc2ccc(Cl)cn2)c1=O [Compound I-2186] are within 0.2 log units of each other in pIC50: 6.88 for the first, 6.98 for the second.

Compared with CCc1nc2ccc(/N=c3\[nH]c(=O)n(CCCCC(=O)OC)c(=O)n3Cc3ccc(C)cc3)cc2s1 [Compound I-2156], CCc1nc2ccc(/N=c3\[nH]c(=O)n(CCCCC(=O)OC)c(=O)n3Cc3ccc(Cl)cc3)cc2s1 [Compound I-2183] is 0.30 log units higher in pIC50: 8.70 for the first, 9.00 for the second.

Going from CCCn1c(=O)[nH]/c(=N\c2ccc(Oc3ccc(C(=O)OC)nc3)cc2)n(Cc2ccc(Cl)cc2)c1=O [Compound I-2157] to CCCn1c(=O)[nH]/c(=N\c2ccc(Oc3ccnc(C(=O)OC)c3)cc2)n(Cc2ccc(Cl)cc2)c1=O [Compound I-2160], the pIC50 falls from 9.00 to 8.52 (0.48 log units).

First: CCc1nc2ccc(/N=c3\[nH]c(=O)n(CCCCC(=O)O)c(=O)n3Cc3ccc(C)cc3)cc2s1 [Compound I-2159]
Second: CCc1nc2ccc(/N=c3\[nH]c(=O)n(CCCCC(=O)O)c(=O)n3Cc3ccc(Cl)cc3)cc2s1 [Compound I-2185]
The pIC50 of the first is 0.49 log units lower: 7.33 for the first, 7.82 for the second. The second is the more potent here.

O=c1[nH]/c(=N\c2ccc3nc(C(F)(F)F)sc3c2)n(Cc2ccc(Cl)cc2)c(=O)n1CCO [Compound I-2167] and O=c1[nH]/c(=N\c2ccc3nc(C(F)(F)F)sc3c2)n(Cc2ccc(Cl)cc2)c(=O)n1C[C@H](O)CO [Compound I-2168] are within 0.2 log units of each other in pIC50: 7.27 for the first, 7.24 for the second.

Compared with CCn1c(=O)[nH]/c(=N\c2ccc3oc(C)c(CCO)c3c2)n(Cc2ccc(Cl)cc2)c1=O [Compound I-2171], CCOC(=O)c1cnc(Oc2ccc(/N=c3\[nH]c(=O)n(CC)c(=O)n3Cc3ccc(Cl)cc3)cc2)o1 [Compound I-2187] is 0.83 log units higher in pIC50: 6.53 for the first, 7.36 for the second.

Compared with CCn1c(=O)[nH]/c(=N\c2ccc(Oc3ccc([N+](=O)[O-])nc3)cc2)n(Cc2ccc(Cl)cc2)c1=O [Compound I-2172], CCn1c(=O)[nH]/c(=N\c2ccc(Oc3cc(C(=O)O)n[nH]3)cc2)n(Cc2ccc(Cl)cc2)c1=O [Compound I-2194] is 1.72 log units lower in pIC50: 9.00 for the first, 7.28 for the second. The first is the more potent here.

CCn1c(=O)[nH]/c(=N\c2ccc(Oc3cncc(C(=O)OC)c3)cc2)n(CC2CCC3(CC2)CC3)c1=O [Compound I-2173] and CCn1c(=O)[nH]/c(=N\c2ccc(Oc3cncc(C(=O)O)c3)cc2)n(CC2CCC3(CC2)CC3)c1=O [Compound I-2175] are within 0.2 log units of each other in pIC50: 7.92 for the first, 7.89 for the second.

CCn1c(=O)[nH]/c(=N\c2ccc(Oc3ccnc(C(=O)OC)c3)cc2)n(CC2CCC3(CC2)CC3)c1=O [Compound I-2174] and CCn1c(=O)[nH]/c(=N\c2ccc(Oc3ccnc(C(N)=O)c3)cc2)n(CC2CCC3(CC2)CC3)c1=O [Compound I-2176] are within 0.2 log units of each other in pIC50: 8.22 for the first, 8.40 for the second.

First: CCn1c(=O)[nH]/c(=N\c2ccc(Oc3ccnc(C(=O)O)c3)cc2)n(CC2CCC3(CC2)CC3)c1=O [Compound I-2177]
Second: CCn1c(=O)[nH]/c(=N\c2ccc(Oc3cncc(C(N)=O)c3)cc2)n(CC2CCC3(CC2)CC3)c1=O [Compound I-2178]
The pIC50 of the first is 0.45 log units lower: 7.85 for the first, 8.30 for the second.

First: CCn1c(=O)[nH]/c(=N\c2ccc(Oc3cncc(C#N)c3)cc2)n(CC2CCC3(CC2)CC3)c1=O [Compound I-2179]
Second: CCOC(=O)c1cc(Oc2ccc(/N=c3\[nH]c(=O)n(CC)c(=O)n3Cc3ccc(Cl)cc3)cc2)[nH]n1 [Compound I-2192]
The pIC50 of the first is 0.42 log units higher: 8.52 for the first, 8.10 for the second.

CCn1c(=O)[nH]/c(=N\c2ccc(Oc3cccc(C(=O)OC)n3)cc2)n(Cc2ccc(C)cc2)c1=O [Compound I-2180] and CCOC(=O)c1coc(Oc2ccc(/N=c3\[nH]c(=O)n(CC)c(=O)n3Cc3ccc(Cl)cc3)cc2)n1 [Compound I-2188] are within 0.2 log units of each other in pIC50: 7.96 for the first, 8.05 for the second.

First: COC(=O)CCCCn1c(=O)[nH]/c(=N\c2ccc(OC(C)C)c(Cl)c2)n(Cc2ccc(Cl)cc2)c1=O [Compound I-2182]
Second: CC(C)Oc1ccc(/N=c2\[nH]c(=O)n(CCCCC(=O)O)c(=O)n2Cc2ccc(Cl)cc2)cc1Cl [Compound I-2184]
The pIC50 of the first is 0.52 log units higher: 8.52 for the first, 8.00 for the second. The first is the more potent here.

Compared with CCn1c(=O)[nH]/c(=N\c2ccc(Oc3cccc4ocnc34)c(Cl)c2)n(Cc2ccc(Cl)cc2)c1=O [Compound I-2195], CCn1c(=O)[nH]/c(=N\c2ccc(Oc3cccc4[nH]ncc34)c(Cl)c2)n(Cc2ccc(Cl)cc2)c1=O [Compound I-2196] is 1.50 log units lower in pIC50: 7.85 for the first, 6.35 for the second. The first is the more potent here.

CCn1c(=O)[nH]/c(=N\c2ccc(Oc3ncc(C(=O)O)o3)cc2)n(Cc2ccc(Cl)cc2)c1=O [Compound I-2189] was tested, and the pIC50 was 7.33 and 7.29.
